Measured values: PubChem BioAssay AID1963837 (Molecular Pharmacology Branch, DTP, NCI, 2024)

System: 843126-344-R-J1-PDC complex spheroid viability
Test: Anticancer human tumor 843126-344-R-J1-PDC patient-derived melanoma cell line growth inhibition [POLQ]
Conditions: for IC50: curve of first compound; for viability, T/C: stronger effect = lower value
Procedure: Multicellular complex tumor spheroid response to Polymerase (POL) inhibitors (novobiocin, ART-558, RP6685) in combination with a variety of drugs and investigational agents in selected tumor cell lines
The POL inhibitors (novobiocin, ART-558, and RP6685) were evaluated both individually and in combination with standard of care and investigational anticancer small molecules within a complex spheroid model of solid tumors. . Complex spheroids include a stromal component modeled by human endothelial cells (HUVEC) and fibroblasts modeled by human mesenchymal stem cells (MSCs). The concentration ranges selected for each drug and investigational agent were based upon clinically achievable concentrations if the clinical Cmax of the agent was known.
Compounds. The drugs and investigational agents: novobiocin (NSC847541), ART-558 (NSC835418), RP-6685 (NSC848927), peposertib (NSC802822), ceralasertib (NSC780249), elimusertib (NSC800525), camonsertib (NSC841442), AZD-1390 (NSC803789), olaparib (NSC753686), talazoparib (NSC767125), rucaparib (NSC756644), sotorasib (NSC818433), MRTX-1133 (NSC836407), SN-38 (NSC673596), topotecan (NSC609699), epotoside (NSC141540), doxorubicin (NSC123127), gemcitabine (NSC613327), 5-fluorouracil (NSC19893), paclitaxel (NSC125973), vemurafenib (NSC761431), MSA-2 (NSC828583), SN-011 (NSC837082), adavosertib (NSC754352), prexasertib (NSC758257), carboplatin (NSC241240) and oxaliplatin (NSC266046), were obtained from the National Cancer Institute (NCI) Developmental Therapeutics Program Chemical Repository (21). The FDA-approved anticancer drug set is available from the Developmental Therapeutics Program at https://dtp.cancer.gov/organization/dscb/obtaining/. […] The stock solutions were prepared in dimethyl sulfoxide (DMSO, Sigma-Aldrich, St. Louis, MO, cat. D2650), except for the platinum compounds which were prepared in saline (Quality Biological, Gaithersburg, MD, cat. 114-055-101), at 800-fold the tested concentration and stored at -70 degrees C prior to their use. All drugs and investigational agents were tested over a range starting from a high concentration at or near the clinical Cmax and decreasing in half-log increments. If the clinical Cmax for an agent had not been determined, the highest concentration tested was 10 microM, except for SN-38, which was tested at a high concentration of 1 microM.
Cell Culture. All cells were maintained in an incubator at 37 degrees C and 5% CO2 with 95% humidity. The PDC lines were cultured according to standard operating procedures established by the NCI PDMR (https://pdmr.cancer.gov). Table 3 of the manuscript, lists the cell lines along with the number of the three cell types plated to form the mct-spheroids and media for tumor cell growth. After thawing, all PDC lines, except 997537-175-T-J1-PDC and 415267-285-R-J2-PDC, were cultured in Matrigel-coated flasks prepared with a working solution of 1X Ham's F-12 nutrient mix, without supplementation (Thermo Fisher Scientific, cat. 11765054), 100 U/mL penicillin-streptomycin (Thermo Fisher Scientific, cat. 15140122), and 2.5% Matrigel (Corning Inc., Corning, NY, cat. 354248) for the first three passages. The two PDC lines 997537-175-T-J1-PDC and 415267-285-R-J2-PDC were cultured on uncoated flasks. The 857933-349-R-J2-PDC line was cultured in 6C/Colon 1B media containing advanced DMEM/F-12 (Thermo Fisher Scientific, cat. 12634028), 10 mM HEPES (Thermo Fisher Scientific, cat. 15630080), 1X GlutaMAX supplement (Thermo Fisher Scientific, cat. 35050061), 0.1 mg/mL primocin (InvivoGen, San Diego, CA, cat. ant-pm-2), 10% defined fetal bovine serum, heat inactivated (HyClone Laboratories Inc., Logan, UT, cat. SH30070.03HI), 50% L-WRN conditioned media (ATCC, cat. CRL-3276), 1.25 mM N-Acetyl-L-cysteine (Sigma-Aldrich, cat. A9165), 10 mM nicotinamide (Sigma-Aldrich, cat. N0636), 1X B-27 supplement (Thermo Fisher Scientific, cat. 17504044), 1X N-2 supplement (Thermo Fisher Scientific, cat. […]

[1] = second compound 0.0316 µM, first compound 0.00316 µM
[2] = second compound 0.0316 µM, first compound 0.01 µM
[3] = second compound 0.0316 µM, first compound 0.0316 µM
[4] = second compound 0.0316 µM, first compound 0.1 µM
[5] = second compound 0.0316 µM, first compound 0.316 µM
[6] = second compound 0.0316 µM, first compound 1 µM
[7] = second compound 0.1 µM, first compound 0.00316 µM
[8] = second compound 0.1 µM, first compound 0.01 µM
[9] = second compound 0.1 µM, first compound 0.0316 µM
[10] = second compound 0.1 µM, first compound 0.1 µM
[11] = second compound 0.1 µM, first compound 0.316 µM
[12] = second compound 0.1 µM, first compound 1 µM
[13] = second compound 0.316 µM, first compound 0.00316 µM
[14] = second compound 0.316 µM, first compound 0.01 µM
[15] = second compound 0.316 µM, first compound 0.0316 µM
[16] = second compound 0.316 µM, first compound 0.1 µM
[17] = second compound 0.316 µM, first compound 0.316 µM
[18] = second compound 0.316 µM, first compound 1 µM
[19] = second compound 1 µM, first compound 0.00316 µM
[20] = second compound 1 µM, first compound 0.01 µM
[21] = second compound 1 µM, first compound 0.0316 µM
[22] = second compound 1 µM, first compound 0.1 µM
[23] = second compound 1 µM, first compound 0.316 µM
[24] = second compound 1 µM, first compound 1 µM
[25] = second compound 3.16 µM, first compound 0.00316 µM
[26] = second compound 3.16 µM, first compound 0.01 µM
[27] = second compound 3.16 µM, first compound 0.0316 µM
[28] = second compound 3.16 µM, first compound 0.1 µM
[29] = second compound 3.16 µM, first compound 0.316 µM
[30] = second compound 3.16 µM, first compound 1 µM
[31] = second compound 10 µM, first compound 0.00316 µM
[32] = second compound 10 µM, first compound 0.01 µM
[33] = second compound 10 µM, first compound 0.0316 µM
[34] = second compound 10 µM, first compound 0.1 µM
[35] = second compound 10 µM, first compound 0.316 µM
[36] = second compound 10 µM, first compound 1 µM
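Throughout, for viability, T/C: spheroids exposed to drugs for seven days before readout.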

Which IC50 (second compound 0.0316 µM) does the source give for C=CCn1c(=O)c2cnc(Nc3ccc(N4CCN(C)CC4)cc3)nc2n1-c1cccc(C(C)(C)O)n1 + COC1C(OC(N)=O)C(O)C(Oc2ccc3c(O)c(NC(=O)c4ccc(O)c(CC=C(C)C)c4)c(=O)oc3c2C)OC1(C)C here?
Its IC50 is greater than 1 µM.

What about the IC50 (second compound 0.1 µM) of the same compound?
The IC50 was greater than 1 µM.

What about the IC50 (second compound 0.316 µM) of the same compound?
The IC50 was greater than 1 µM.

What about the IC50 (second compound 1 µM) of the same compound?
The IC50 was greater than 1 µM.

What about the IC50 (second compound 3.16 µM) of the same compound?
The IC50 was greater than 1 µM.

What about the IC50 (second compound 10 µM) of the same compound?
The IC50 was greater than 1 µM.

And the viability, T/C [1]?
Its viability, T/C is 114%.

What about the viability, T/C [2] of the same compound?
The viability, T/C was 84%.

What about the viability, T/C [3] of the same compound?
Its viability, T/C is 86.6%.

What about the viability, T/C [4] of the same compound?
The viability, T/C was 81.5%.

What about the viability, T/C [5] of the same compound?
Its viability, T/C is 89.4%.

And the viability, T/C [6]?
The viability, T/C was 80%.

And the viability, T/C [7]?
The viability, T/C was 93.7%.

And the viability, T/C [8]?
The viability, T/C was 90.4%.

What about the viability, T/C [9] of the same compound?
Its viability, T/C is 99.5%.

And the viability, T/C [10]?
Its viability, T/C is 82.8%.

What about the viability, T/C [11] of the same compound?
Its viability, T/C is 85.7%.

And the viability, T/C [12]?
The viability, T/C was 70.6%.

And the viability, T/C [13]?
The viability, T/C was 87%.

And the viability, T/C [14]?
The viability, T/C was 115%.

What about the viability, T/C [15] of the same compound?
The viability, T/C was 98.8%.

What about the viability, T/C [16] of the same compound?
The viability, T/C was 88.5%.

What about the viability, T/C [17] of the same compound?
The viability, T/C was 81.2%.

What about the viability, T/C [18] of the same compound?
Its viability, T/C is 86.6%.

What about the viability, T/C [19] of the same compound?
Its viability, T/C is 78.4%.

What about the viability, T/C [20] of the same compound?
The viability, T/C was 90.3%.

And the viability, T/C [21]?
Its viability, T/C is 86.6%.

What about the viability, T/C [22] of the same compound?
The viability, T/C was 85.1%.

And the viability, T/C [23]?
The viability, T/C was 84.2%.

And the viability, T/C [24]?
Its viability, T/C is 76.9%.

What about the viability, T/C [25] of the same compound?
Its viability, T/C is 83.6%.

What about the viability, T/C [26] of the same compound?
The viability, T/C was 106%.

What about the viability, T/C [27] of the same compound?
Its viability, T/C is 98.5%.

What about the viability, T/C [28] of the same compound?
The viability, T/C was 72.7%.

And the viability, T/C [29]?
The viability, T/C was 81.7%.

And the viability, T/C [30]?
The viability, T/C was 84.2%.

And the viability, T/C [31]?
The viability, T/C was 89.8%.

What about the viability, T/C [32] of the same compound?
The viability, T/C was 97.4%.

What about the viability, T/C [33] of the same compound?
The viability, T/C was 94.8%.

What about the viability, T/C [34] of the same compound?
Its viability, T/C is 102%.

What about the viability, T/C [35] of the same compound?
The viability, T/C was 91.9%.

What about the viability, T/C [36] of the same compound?
The viability, T/C was 65%.

With CCc1c2c(nc3ccc(O)cc13)-c1cc3c(c(=O)n1C2)COC(=O)[C@]3(O)CC + COC1C(OC(N)=O)C(O)C(Oc2ccc3c(O)c(NC(=O)c4ccc(O)c(CC=C(C)C)c4)c(=O)oc3c2C)OC1(C)C as the compound, how does the IC50 (second compound 0.0316 µM) read?
Its IC50 is greater than 1 µM.

And the IC50 (second compound 0.1 µM)?
The IC50 was greater than 1 µM.

And the IC50 (second compound 0.316 µM)?
The IC50 was greater than 1 µM.

And the IC50 (second compound 1 µM)?
The IC50 was 0.429 µM.

And the IC50 (second compound 3.16 µM)?
Its IC50 is 0.242 µM.

And the IC50 (second compound 10 µM)?
Its IC50 is 0.485 µM.

And the viability, T/C [1]?
Its viability, T/C is 63.2%.

And the viability, T/C [2]?
Its viability, T/C is 59.4%.

And the viability, T/C [3]?
Its viability, T/C is 65.9%.

And the viability, T/C [4]?
Its viability, T/C is 64.5%.

And the viability, T/C [5]?
Its viability, T/C is 63.1%.

And the viability, T/C [6]?
The viability, T/C was 42.7%.

And the viability, T/C [7]?
The viability, T/C was 66.5%.

What about the viability, T/C [8] of the same compound?
Its viability, T/C is 52.1%.

What about the viability, T/C [9] of the same compound?
The viability, T/C was 71.4%.

And the viability, T/C [10]?
Its viability, T/C is 69.2%.

And the viability, T/C [11]?
The viability, T/C was 63.8%.

And the viability, T/C [12]?
Its viability, T/C is 48.6%.

What about the viability, T/C [13] of the same compound?
The viability, T/C was 70.5%.

And the viability, T/C [14]?
The viability, T/C was 59.4%.

What about the viability, T/C [15] of the same compound?
Its viability, T/C is 64.9%.

And the viability, T/C [16]?
The viability, T/C was 64.8%.

What about the viability, T/C [17] of the same compound?
The viability, T/C was 73%.

What about the viability, T/C [18] of the same compound?
The viability, T/C was 50.3%.

And the viability, T/C [19]?
Its viability, T/C is 66.7%.

What about the viability, T/C [20] of the same compound?
The viability, T/C was 48.2%.

And the viability, T/C [21]?
Its viability, T/C is 50.9%.

What about the viability, T/C [22] of the same compound?
The viability, T/C was 70.6%.

And the viability, T/C [23]?
Its viability, T/C is 48.6%.

What about the viability, T/C [24] of the same compound?
Its viability, T/C is 40.5%.

And the viability, T/C [25]?
Its viability, T/C is 66.9%.

And the viability, T/C [26]?
Its viability, T/C is 63.7%.

What about the viability, T/C [27] of the same compound?
Its viability, T/C is 73.3%.

And the viability, T/C [28]?
Its viability, T/C is 57.1%.

And the viability, T/C [29]?
Its viability, T/C is 50.9%.

What about the viability, T/C [30] of the same compound?
Its viability, T/C is 44.8%.

What about the viability, T/C [31] of the same compound?
Its viability, T/C is 59.9%.

And the viability, T/C [32]?
Its viability, T/C is 62.7%.

What about the viability, T/C [33] of the same compound?
The viability, T/C was 56.3%.

What about the viability, T/C [34] of the same compound?
Its viability, T/C is 67.5%.

And the viability, T/C [35]?
Its viability, T/C is 50%.

And the viability, T/C [36]?
The viability, T/C was 43%.
